From patent US6630135B1, “Use of sustained release antibiotic compositions in ophthalmic surgical procedures” (Alcon Laboratories, Inc., priority 1993, dated 2003)
≈ marks a conversion by molar mass, not a printed value. Read-outs that look alike come from different tables or passages of the source.

Assays:
[1] = test system: Pseudomonas aeruginosa (i.e., Strain 4N3422); assay: Minimum inhibitory concentration against Pseudomonas aeruginosa Strain 4N3422; type: cell-based
Description: The concentration of antibiotic utilized in the compositions of the present invention will vary depending on the intended use of the compositions (i.e., sterilization of the surgical field or prevention of post-surgical infections), and the relative antimicrobial activity of the specific antibiotic selected. The antimicrobial activity of antibiotics is generally expressed as the minimum concentration required to inhibit the growth of a specified pathogen. The concentration is also referred to as the “minimum inhibitory concentration” or “MIC”. The term “MIC90” refers to the minimum concentration of antibiotic required to inhibit the growth of ninety percent (90%) of a population of multiple strains of a microorganism. The concentration of an antibiotic required to totally kill a specified population of bacteria or other pathogens is referred to as the “minimum bactericidal concentration” or “MBC”. The minimum inhibitory concentrations of some of the preferred antibiotics of the present invention, relative to a specific strain of Pseudomonas aeruginosa (i.e., Strain 4N3422), are presented in the following table: […]

[2] = Ocular tissue drug concentration after topical dosing of rabbit eyes (HPLC); type: in vivo; details: New Zealand albino, 30 microliters, normal eyes, after 30 minutes
Procedure: The following formulations were tested: The route of administration was topical. The rabbits received 30 microliters of either the gel or solution formulations in both eyes. At the end of the study, the aqueous humor and cornea were collected and assayed by high performance liquid chromatography to determine the amount of drug present.

Hemo. influenzae = assay: MIC90 against Hemo. influenzae; type: cell-based
Description: (§1) The concentration of antibiotic utilized in the compositions of the present invention will vary depending on the intended use of the compositions (i.e., sterilization of the surgical field or prevention of post-surgical infections), and the relative antimicrobial activity of the specific antibiotic selected. The antimicrobial activity of antibiotics is generally expressed as the minimum concentration required to inhibit the growth of a specified pathogen. The concentration is also referred to as the “minimum inhibitory concentration” or “MIC”. The term “MIC90” refers to the minimum concentration of antibiotic required to inhibit the growth of ninety percent (90%) of a population of multiple strains of a microorganism. The concentration of an antibiotic required to totally kill a specified population of bacteria or other pathogens is referred to as the “minimum bactericidal concentration” or “MBC”. The activity of antibiotics against Pseudomonas aeruginosa is particularly important in the present invention, because ophthalmic infections involving Pseudomonas aeruginosa represent an extremely serious condition which may ultimately result in the loss of the affected eye.

Strep. pneumoniae = assay: MIC90 against Strep. pneumoniae; type: cell-based
Description: as §1

Staph. aureus = assay: MIC90 against multiple strains of Staph. aureus; type: cell-based
Description: as §1

[3] = humans, one hour after administration, cited from earlier work
P. aeruginosa = assay: MIC90 against multiple strains of P. aeruginosa; type: cell-based
Description: as §1

Staph. epidermidis = assay: MIC90 against Staph. epidermidis; type: cell-based
Description: as §1

[4] = rabbits, subconjunctival injection; cited from earlier work
[5] = Haemophilus influenzae, read-out: MIC 90
[6] = Streptococcus pneumoniae, read-out: MIC 90
[7] = Staphylococcus aureus, read-out: MIC 90
[8] = Pseudomonas aeruginosa, read-out: MIC 90
[9] = Staphylococcus epidermidis, read-out: MIC 90

## NCC[C@H](O)C(=O)N[C@@H]1C[C@H](N)[C@@H](O[C@H]2O[C@H](CN)[C@@H](O)[C@H](O)[C@H]2O)[C@H](O)[C@H]1O[C@H]1O[C@H](CO)[C@@H](O)[C@H](N)[C@H]1O [Amikacin]
[1]; read-out: MIC
  MIC: 8 µg/mL (≈ 13.7 µM)

## CO/N=C(\C(=O)N[C@@H]1C(=O)N2C(C(=O)O)=C(COC(C)=O)CS[C@H]12)c1csc(N)n1 [Cefotaxime]
[1]; read-out: MIC
  MIC: 32 µg/mL (≈ 70.3 µM)

## CO[C@@]1(NC(=O)Cc2cccs2)C(=O)N2C(C(=O)O)=C(COC(N)=O)CS[C@@H]21 [Cefoxitin]
[1]; read-out: MIC
  MIC: > 32 µg/mL

## CC(C)(O/N=C(\C(=O)N[C@@H]1C(=O)N2C(C(=O)[O-])=C(C[n+]3ccccc3)CS[C@H]12)c1csc(N)n1)C(=O)O [Ceftazidime]
[1]; read-out: MIC
  MIC: 1 µg/mL (≈ 1.83 µM)

## O=C(O)c1cn(C2CC2)c2cc(N3CCNCC3)c(F)cc2c1=O [Ciprofloxacin]
[2]; aqueous humor, read-out: drug levels in aqueous humor
  concentration at 30 min: 280 ng/g
[2]; cornea, read-out: drug levels in cornea
  concentration at 30 min: 10600 ng/g
Hemo. influenzae; [5]
  MIC90: 0.015 µg/mL (≈ 0.0453 µM)
Strep. pneumoniae; [6]
  MIC90: 2 µg/mL (≈ 6.04 µM)
Staph. aureus; [7]
  MIC90: 0.5 µg/mL (≈ 1.51 µM)
[1]; read-out: MIC
  MIC: < 0.125 µg/mL
[3]; IV injection (200 mg)
  maximum aqueous humor concentration: 0.16 µg/mL
[3]; oral dosage (1 g)
  maximum aqueous humor concentration: 0.33 µg/mL
P. aeruginosa; [8]
  MIC90: 0.5 µg/mL (≈ 1.51 µM)
Staph. epidermidis; [9]
  MIC90: 0.4 µg/mL (≈ 1.21 µM)

## C[C@@H](O)[C@H]1C(=O)N2C(C(=O)O)=C(SCCN=CN)C[C@H]12 [Imipenem]
[1]; read-out: MIC
  MIC: 1 µg/mL (≈ 3.34 µM)

## CCn1cc(C(=O)O)c(=O)c2cc(F)c(N3CCNCC3)cc21 [Norfloxacin]
[1]; read-out: MIC
  MIC: < 0.5 µg/mL

## CCN1CCN(C(=O)N[C@@H](C(=O)N[C@@H]2C(=O)N3[C@@H]2SC(C)(C)[C@@H]3C(=O)O)c2ccccc2)C(=O)C1=O [Piperacillin]
[1]; read-out: MIC
  MIC: < 8 µg/mL

## CC1(C)S[C@@H]2[C@H](NC(=O)[C@H](C(=O)O)c3ccsc3)C(=O)N2[C@H]1C(=O)O [Ticarcillin]
[1]; read-out: MIC
  MIC: 32 µg/mL (≈ 83.2 µM)

## NC[C@H]1O[C@H](O[C@H]2[C@H](O)[C@@H](O[C@H]3O[C@H](CO)[C@@H](O)[C@H](N)[C@H]3O)[C@H](N)C[C@@H]2N)[C@H](N)C[C@@H]1O [Tobramycin]
Hemo. influenzae; [5]
  MIC90: 13.4 µg/mL (≈ 28.7 µM)
Strep. pneumoniae; [6]
  MIC90: 34.5 µg/mL (≈ 73.8 µM)
Staph. aureus; [7]
  MIC90: 6.3 µg/mL (≈ 13.5 µM)
[1]; read-out: MIC
  MIC: > 8 µg/mL
P. aeruginosa; [8]
  MIC90: 20 µg/mL (≈ 42.8 µM)
Staph. epidermidis; [9]
  MIC90: 56 µg/mL (≈ 120 µM)

## Gentamicin
Hemo. influenzae
  MIC90: 0.8 µg/mL
Strep. pneumoniae
  MIC90: 50.0 µg/mL
Staph. aureus
  MIC90: 12.5 µg/mL
[1]
  MIC: >8 µg/mL
[4]
  maximum concentration attained in the aqueous humor: 8.8 µg/g
P. aeruginosa
  MIC90: 8.0 µg/mL
Staph. epidermidis
  MIC90: 12.5 µg/mL
